Assay results from patent US11415579B2, “Assay for measuring a rate of reaction between a target and a ligand candidate” (Imperial College Innovations Ltd., priority 2016, dated 2022).

Experiments:
[1] = Kinetic thiol consumption assay with model thiol glutathione; type: physicochemical; set-up: Rate constant with glutathione (k(GSH)): unit not given here; conditions: for Rate constant with glutathione (k(GSH)): 500 μM ligand, 5 μM thiol, phosphate buffer pH 8; for Rate constant with Glutathione: Protein: Glutathione, cysteine position NA, in h-1
Outline: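 First, 5 μM glutathione in degassed phosphate buffer (pH 8) receives immobilized TCEP beads (2% v/v). Then acrylamide is added and plates incubate 1 h at room temperature. Finally, fluorescence (380/470 nm) is normalized and fitted to first-order decay for rate constants.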

[2] = molecular target: T1, Cdk2(R122C) (C177A) (Homo sapiens, UniProt P24941, C177A/R122C); assay: Kinetic thiol consumption assay with Cdk2 mutant R122C; type: binding; set-up: key to Rate enhancement, Cdk2 R122C: rate constant with Cdk2 ÷ rate constant with model thiol (fold); conditions: additional mutation C177A; for Rate constant with Cdk2 R122C: Protein: Cdk2, cysteine position R122C, in h-1
T1 construct: poly-histidine; made in house; host or cells: E. coli
Outline: (§1)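 Thiol consumption was monitored kinetically using 5 μM Cdk2 (C177A plus one introduced cysteine) in degassed phosphate buffer at pH 8 with TCEP beads. Plates were kept 1 h at room temperature before fluorescence reading, and rate constants came from exponential decay fitting.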

[3] = molecular target: T2, Cdk2(N272C) (C177A) (Homo sapiens, UniProt P24941, C177A/N272C); assay: Kinetic thiol consumption assay with Cdk2 mutant N272C; type: binding; set-up: key to Rate enhancement, Cdk2 N272: rate constant with Cdk2 ÷ rate constant with model thiol (fold); conditions: for Rate enhancement, Cdk2 N272: Cdk2 N272, additional mutation C177A; for Rate constant with Cdk2 N272C: Protein: Cdk2, cysteine position N272C, additional mutation C177A, in h^-1
T2 construct: poly-histidine; made in house; host or cells: E. coli
Outline: as §1

[4] = molecular target: T3, human cyclin-dependent kinase 2 (Cdk2) (Homo sapiens, UniProt P24941); assay: Kinetic thiol consumption assay with wild type Cdk2 (C177); type: binding; set-up: key to Rate enhancement, Cdk2 WT: k(Cdk2) divided by k(model thiol); Rate constant with Cdk2 (k(Cdk2)): unit not given here; conditions: for Rate constant with Cdk2 (k(Cdk2)): 500 μM ligand, 5 μM thiol, phosphate buffer pH 8; for Rate enhancement, Cdk2 WT: no additional mutations; for Rate constant with Cdk2 WT: Protein: Cdk2, cysteine position WT, in h^-1; for k(Cdk2)/k(Cdk2_mut) rate enhancement: model thiol Cdk2[C177A, F80C, K278C]; for k(Cdk2)/k(GSH) rate enhancement: model thiol glutathione
T3 construct: poly-histidine; made in house; host or cells: E. coli
Outline: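 His-tagged human Cdk2 from E. coli (sole surface cysteine C177) or a model thiol, each 5 μM in degassed phosphate buffer pH 8 with immobilized TCEP, reacted with acrylamides at room temperature. Fluorescence (ex 380/em 470) normalized to DMSO/thiol control over time; first-order rate constants, Cdk2 rate divided by model-thiol rate.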

[5] = molecular target: T4, Cdk2(S181C) (C177A) (Homo sapiens, UniProt P24941, C177A/S181C); assay: Kinetic thiol consumption assay with Cdk2 mutant S181C; type: binding; set-up: key to Rate enhancement, Cdk2 S181C: rate constant with Cdk2 ÷ rate constant with model thiol (fold); conditions: additional mutation C177A; for Rate constant with Cdk2 S181C: Protein: Cdk2, cysteine position S181C, in h^-1
T4 construct: poly-histidine; made in house; host or cells: E. coli
Outline: as §1

[6] = molecular target: T5, Cdk2(T182C) (C177A) (Homo sapiens, UniProt P24941, C177A/T182C); assay: Kinetic thiol consumption assay with Cdk2 mutant T182C; type: binding; set-up: key to Rate enhancement, Cdk2 T182C: rate constant with Cdk2 ÷ rate constant with model thiol (fold); conditions: additional mutation C177A; for Rate constant with Cdk2 T182C: Protein: Cdk2, cysteine position T182C, in h^-1
T5 construct: poly-histidine; made in house; host or cells: E. coli
Outline: as §1

[7] = molecular target: T6, Cdk2(C177A, F80C) (Homo sapiens, UniProt P24941, C177A/F80C); assay: Kinetic thiol consumption assay with Cdk2 mutant F80C, incl. kobs versus concentration (Kd, k2); type: binding; set-up: key to Rate enhancement, Cdk2 F80C: Cdk2 rate constant divided by model-thiol rate constant; conditions: additional mutation C177A; for Rate constant with Cdk2 F80C: Protein: Cdk2, cysteine position F80C, in h^-1
T6 construct: poly-histidine; made in house; host or cells: E. coli
Outline: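 His-tagged Cdk2(C177A/F80C) from E. coli or model thiol, 5 μM in degassed phosphate buffer pH 8 with TCEP beads, reacted with acrylamide ligands; fluorescence (ex/em 380/470 nm) normalized to DMSO control and fitted to first-order decay for kobs. Kd and k2 obtained from hyperbolic fit of kobs versus ligand concentration.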

[8] = molecular target: T7, Cdk2(H71C) (C177A) (Homo sapiens, UniProt P24941, C177A/H71C); assay: Kinetic thiol consumption assay with Cdk2 mutant H71C; type: binding; set-up: key to Rate enhancement, Cdk2 H71C: rate constant with Cdk2 ÷ rate constant with model thiol (fold); conditions: additional mutation C177A; for Rate constant with Cdk2 H71C: Protein: Cdk2, cysteine position H71C, in h^-1
T7 construct: poly-histidine; made in house; host or cells: E. coli
Outline: as §1

[9] = molecular target: T8, Cdk2(S276C) (C177A) (Homo sapiens, UniProt P24941, C177A/S276C); assay: Kinetic thiol consumption assay with Cdk2 mutant S276C; type: binding; set-up: key to Rate enhancement, Cdk2 S276C: rate constant with Cdk2 ÷ rate constant with model thiol (fold); conditions: additional mutation C177A; for Rate constant with Cdk2 S276C: Protein: Cdk2, cysteine position S276C, in h^-1
T8 construct: poly-histidine; made in house; host or cells: E. coli
Outline: as §1

[10] = molecular target: T9, Cdk2[C177A, F80C, K278C] (Homo sapiens, UniProt P24941, C177A/F80C/K278C); assay: Kinetic thiol consumption assay with mutant Cdk2 as model thiol; type: binding; set-up: unit not given here; conditions: 500 μM ligand, 5 μM thiol, phosphate buffer pH 8
T9 construct: poly-histidine; made in house; host or cells: E. coli
Outline: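 First-order rate constants were derived by exponential-decay fitting of DMSO/thiol-normalized fluorescence (380/470 nm) over time at room temperature. Thiol was 5 μM E. coli-expressed His-tagged Cdk2 mutant C177A/F80C/K278C in degassed pH 8 phosphate buffer containing 2% v/v TCEP beads.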

Row | SMILES | Rate constant with glutathione (k(GSH)) [1] | Rate constant with Glutathione [1] | Rate enhancement, Cdk2 R122C [2] | Rate constant with Cdk2 R122C [2] | Rate enhancement, Cdk2 N272 [3] | Rate constant with Cdk2 N272C [3] | Rate constant with Cdk2 (k(Cdk2)) [4] | Rate enhancement, Cdk2 WT [4] | Rate constant with Cdk2 WT [4] | k(Cdk2)/k(Cdk2_mut) rate enhancement [4] | k(Cdk2)/k(GSH) rate enhancement [4] | Rate enhancement, Cdk2 S181C [5] | Rate constant with Cdk2 S181C [5] | Rate enhancement, Cdk2 T182C [6] | Rate constant with Cdk2 T182C [6] | Rate enhancement, Cdk2 F80C [7] | Rate constant with Cdk2 F80C [7] | Rate enhancement, Cdk2 H71C [8] | Rate enhancement, Cdk2 S276C [9] | Rate constant with Cdk2 S276C [9] | other results
1 | C=CC(=O)N1CCN(c2cc(N3CCOCC3)ncn2)CC1 [CA-179] | 0.00683 | 0.006802 | 0.6453 | 0.004389 | 0.4 | 0.002721 | 0.0076 | 1.117 | 0.007599 | 1.056 | 1.112 | 2.608 | 0.01774 | 7.042 | 0.0479 | 0.3927 | 0.002671 | 1.062 | 1.169 | 0.007953 | Rate constant with Cdk2 H71C [8]: 0.007227; Rate constant with Cdk2[C177A, F80C, K278C] (k(Cdk2_mut)) [10]: 0.00719
2 | C=CC(=O)N(Cc1ccc2c(c1)CCO2)C1CCCC1 [CA-184] | 0.01856 | 0.02938 | 0.7583 | 0.02228 | 7.192 | 0.2113 | 0.2235 | 7.607 | 0.2235 | 3.034 | 12.04 | 10.57 | 0.3106 | 11.73 | 0.3446 | 2.208 | 0.06488 | 7.662 | 20.94 | 0.6153 | hit classification, Example 1 ([4]; hits defined as kCdk2/kGSH>5.8 (3 standard deviations over the mean)): hit fragments; Rate constant with Cdk2 H71C [8]: 0.2251; Rate constant with Cdk2[C177A, F80C, K278C] (k(Cdk2_mut)) [10]: 0.07366
3 | C=CC(=O)N1CCn2cccc2C1c1ccccc1 (stereo not drawn) [CA-187] | 0.04403 | 0.04405 | 0.4465 | 0.01967 | 0.7126 | 0.03139 | 0.02811 | 0.6381 | 0.02811 | 1.586 | 0.6384 | 0.2036 | 0.00897 | 4.62 | 0.2035 | 0.3805 | 0.01676 | 1.456 | 1.852 | 0.08156 | Rate constant with Cdk2 H71C [8]: 0.06414; Rate constant with Cdk2[C177A, F80C, K278C] (k(Cdk2_mut)) [10]: 0.01772
4 | C=CC(=O)N1CC2(CCC2)c2c(F)cccc21 [CA-188] | 0.1903 | 0.1987 | 0.08933 | 0.01775 | 0.3173 | 0.06304 | 0.55 | 2.768 | 0.55 | 0.4737 | 2.89 | 0.2482 | 0.04931 | 1.883 | 0.3741 | 2.57 | 0.5106 | 1.537 | 0.03818 | 0.007587 | Rate constant with Cdk2 H71C [8]: 0.3055; Rate constant with Cdk2[C177A, F80C, K278C] (k(Cdk2_mut)) [10]: 1.161
5 | C=CC(=O)N1CC2CCN(Cc3ccccc3)C2C1 (stereo not drawn) [CA-190] | 0.01268 | 0.01399 | 0.501 | 0.007009 | 0.2334 | 0.003265 | 0.00347 | 0.248 | 0.003469 | 1.136 | 0.2735 | 0.2548 | 0.003565 | 0.8134 | 0.01138 | 0.3783 | 0.005293 | 0 | 0.3527 | 0.004934 | Rate constant with Cdk2[C177A, F80C, K278C] (k(Cdk2_mut)) [10]: 0.00305
6 | C=CC(=O)N(CCCN1CCOCC1)Cc1ccncc1 [CA-192] | 0.00676 | 0.01342 | 0.136 | 0.001825 | 0.3716 | 0.004987 | 0.00341 | 0.4352 | 0.00584 | 0.7625 | 0.5048 | 0.1475 | 0.00198 | 0.4571 | 0.006134 | 0.1157 | 0.001553 | 0.218 | 0.08092 | 0.001086 | Rate constant with Cdk2 H71C [8]: 0.002926; Rate constant with Cdk2[C177A, F80C, K278C] (k(Cdk2_mut)) [10]: 0.00447
